US9895387B2, “Compositions for treating Helicobacter pylori infection” (OVER S.R.L., priority 2010, dated 2018)
≈ marks a conversion by molar mass, not a printed value. Where two headings read alike, the source gives them in different places.

Tests used:
Format in all cases: cell-based, Helicobacter pylori
[1] = test system: H. pylori strain M/C-R2 (CagA+, resistant to met and clar); assay: Minimal bactericidal concentration (MBC), broth dilution with subculture on agar; details: substance alone
[2] = test system: H. pylori strain 4 Kb (CagA+); assay: as above; details: substance alone
[3] = test system: H. pylori strain M/C-R1 (CagA+, resistant to met and clar); assay: as above; details: substance alone
[4] = test system: H. pylori strain 10K (CagA+); assay: as above; details: substance alone
[5] = test system: H. pylori strain CCUG 17874 (CagA+); assay: as above
[6] = test system: H. pylori strain G50 (CagA−); assay: as above; details: substance alone
[7] = test system: H. pylori strain 328 Km (isogenic mutant CagA−); details: substance alone
[8] = test system: H. pylori strain G21 (CagA−); assay: Minimal bactericidal concentration (MBC), broth dilution with subculture on agar; details: substance alone
[9] = test system: H. pylori strain 328 (CagA+); assay: as above; details: substance alone
[10] = test system: H. pylori strain Di Simpli (CagA+); assay: as above; details: substance alone
[11] = Helicobacter pylori, read-out: MBC
[12] = Helicobacter pylori, CCUG17874, substance alone, read-out: MBC

| Compound | MBC [1, 11] [µg/mL] | MBC [3, 11] [µg/mL] | MBC [5, 12] [µg/mL] | MBC [6, 11] [µg/mL] | MBC [9, 11] [µg/mL] | MBC [10, 11] [µg/mL] | MBC [4, 11] [µg/mL] | other results |
| --- | --- | --- | --- | --- | --- | --- | --- | --- |
| polyoxyethylene (20) sorbitan monooleate [polysorbate 80] | – | – | – | – | – | – | – | MBC [1]: 62 µg/mL; MBC [2]: 31 µg/mL; MBC [3]: 160 µg/mL; MBC [4]: 6.2 µg/mL; MBC ([5]; substance alone): 5.0 µg/mL; MBC [6]: 4.0 µg/mL; MBC ([6]; listed as polysorbate): 4 µg/mL; MBC [7]: 62 µg/mL; MBC [8]: 1.6 µg/mL; MBC [9]: 31 to 62 µg/mL; MBC ([9]; listed as polysorbate): 62 µg/mL; MBC [10]: 25 µg/mL |
| CC[C@H]1OC(=O)[C@H](C)[C@@H](O[C@H]2C[C@@](C)(OC)[C@@H](O)[C@H](C)O2)[C@H](C)[C@@H](O[C@@H]2O[C@H](C)C[C@H](N(C)C)[C@H]2O)[C@](C)(OC)C[C@@H](C)C(=O)[C@H](C)[C@@H](O)[C@]1(C)O [clarithromycin] | 2500 (≈ 3340 µM) | 320 (≈ 428 µM) | 0.25 (≈ 0.334 µM) | 0.2 (≈ 0.267 µM) | 0.2 (≈ 0.267 µM) | 0.4 (≈ 0.535 µM) | – | MBC [2, 11]: 0.1 µg/mL (≈ 0.134 µM); MBC [8, 11]: 0.2 µg/mL (≈ 0.267 µM) |
| Cc1ncc([N+](=O)[O-])n1CCO [metronidazole] | 320 (≈ 1870 µM) | 40 (≈ 234 µM) | 3.1 (≈ 18.1 µM) | – | 16 (≈ 93.5 µM) | 10 (≈ 58.4 µM) | – | – |
| C[C@H]1COc2c(N3CCN(C)CC3)c(F)cc3c(=O)c(C(=O)O)cn1c23 [levofloxacin] | – | – | – | 0.16 (≈ 0.443 µM) | – | – | 0.31 (≈ 0.858 µM) | – |
| CC1(C)S[C@@H]2[C@H](NC(=O)[C@H](N)c3ccc(O)cc3)C(=O)N2[C@H]1C(=O)O [amoxicillin] | – | – | – | 0.04 (≈ 0.109 µM) | – | – | 0.08 (≈ 0.219 µM) | – |
